In patent US12065445B2, “CDK2 inhibitors and methods of using the same” (Cedilla Therapeutics, Inc., priority 2021, dated 2024):

What follows are compounds tested on Kuramochi cells (assay: BrdU Cell Proliferation Assay). Conditions: read-out: BrdU - KURAMOCHI.1: IC50.
Assay type: cell-based
How it was run: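 Signal is 450 nm absorbance from a peroxidase anti-BrdU ELISA after a 1-hour BrdU label, background-subtracted and normalized to DMSO-treated wells. Kuramochi cells (2,000 per well) had been exposed to compound for 4 days. Dosing used a 10-point dose response in 3-fold steps.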
Work on CNC(=O)[C@@H](NC(=O)[C@H]1CN(C(=O)c2cnn(Cc3ccccc3)c2)CC12CN(C(=O)C1(CCF)CC1)C2)[C@@H](C)OCc1ccccc1 [I-117B] yielded an IC50 greater than 10 µM. In the case of CNC(=O)[C@@H](NC(=O)[C@@H]1CN(C(=O)c2cnn(Cc3ccccc3)c2)CC12CN(C(=O)[C@H]1CC1(C)C)C2)[C@@H](C)OCC1CCC1 [I-144A], the IC50 is reported as greater than 10 µM. C[C@@H](OCc1ccccc1)[C@H](NC(=O)C1CN(C(=O)c2cnn(Cc3ccccc3)c2)CC12CN(C(=O)[C@H]1CC1(C)C)C2)C(=O)N1CCOCC1 (stereo partly shown) [I-86] gave an IC50 greater than 10 µM. For CC1(C)C[C@@H]1C(=O)N1CC2(CN(C(=O)c3cnn(Cc4ccccc4)c3)C[C@H]2C(=O)N2CCCC(Cc3ccccc3)C2)C1 (stereo partly shown) [I-91A], the IC50 was greater than 10 µM. Work on CNC(=O)[C@@H](NC(=O)[C@H]1CN(C(=O)Nc2cnn(Cc3ccccc3)c2)CC12CN(C(=O)[C@H]1CC1(C)C)C2)[C@@H](C)OCc1ccccc1 [I-48B] yielded an IC50 greater than 10 µM. For C[C@@H](OCC1CCC(F)(F)CC1)[C@H](NC(=O)[C@@H]1CN(C(=O)c2cn[nH]c2)CC12CN(C(=O)C1(C(F)(F)F)CC1)C2)C(=O)N1CCC(F)(F)CC1 [I-188A], the IC50 was greater than 10 µM. Work on CC1(C)C[C@@H]1C(=O)N1CC2(CN(C(=O)c3cnn(Cc4ccccc4)c3)C[C@@H]2C(=O)Nc2ccc(-c3ccccc3)cc2)C1 [I-81B] yielded an IC50 of 5 to 10 µM. In the case of CNC(=O)[C@@H](NC(=O)[C@H]1CN(Cc2ccccn2)CC12CN(C(=O)[C@H]1CC1(C)C)C2)[C@@H](C)OCc1ccccc1 [I-40B], the IC50 is reported as greater than 10 µM. In the case of CNC(=O)[C@@H](NC(=O)[C@@H]1CN(C(=O)c2cnn(C)c2)CC12CN(C(=O)[C@H]1CC1(C)C)C2)[C@@H](C)OCc1ccccc1 [I-33A], the IC50 is reported as greater than 10 µM. Work on CC1(C)C[C@@H]1C(=O)N1CC2(CN(C(=O)c3cnn(Cc4ccccc4)c3)C[C@H]2C(=O)Nc2ccc(Cc3ccccc3)nc2)C1 [I-139, (S)-6-(1-benzyl-1H-pyrazole-4-carbonyl)-N-(6-benzylpyridin-3-yl)-2-((S)-2,2-dimethylcyclopropane-1-carbonyl)-2,6-diazaspiro[3.4]octane-8-carboxamide] yielded an IC50 greater than 10 µM. C[C@H](NC(=O)[C@H]1CN(C(=O)c2cnn(Cc3ccccc3)c2)CC12CN(C(=O)[C@H]1CC1(C)C)C2)c1cccc(F)c1 [I-127B] showed an IC50 greater than 10 µM. CNC(=O)[C@@H](NC(=O)[C@@H]1CN(C(=O)c2cnn(Cc3ccccc3)c2)CC12CN(C(=O)C1(F)CC1)C2)[C@@H](C)OCc1ccccc1 [I-71A] showed an IC50 greater than 10 µM. With CNC(=O)[C@@H](NC(=O)[C@H]1CN(C(=O)c2cnc(C(C)(C)C)s2)CC12CN(C(=O)[C@H]1CC1(C)C)C2)[C@@H](C)OCC1CCCCC1 [I-229B] the IC50 was greater than 10 µM. CNC(=O)[C@@H](NC(=O)[C@H]1CN(C(=O)c2cnn(Cc3ccccc3)c2)CC12CN(C(=O)[C@H]1CC1(C)C)C2)[C@@H](C)OCC1CCC1 [I-144B] gave an IC50 greater than 10 µM. For CNC(=O)[C@@H](NC(=O)[C@H]1CN(C(=O)c2cnn(Cc3ccccc3)c2)CC12CN(C(=O)C(C)C)C2)[C@@H](C)OCc1ccccc1 [I-54B], the IC50 was greater than 10 µM. Work on CNC(=O)[C@@H](NC(=O)[C@H]1CN(C(=O)c2cncs2)CC12CN(C(=O)[C@H]1CC1(C)C)C2)[C@@H](C)OCC1CCCCC1 [I-129B] yielded an IC50 greater than 10 µM. CNC(=O)[C@@H](NC(=O)[C@H]1CN(Cc2cncs2)CC12CN(C(=O)[C@H]1CC1(C)C)C2)[C@@H](C)OCc1ccccc1 [I-51B] showed an IC50 greater than 10 µM. CNC(=O)[C@@H](NC(=O)[C@@H]1CN(Cc2ccccn2)CC12CN(C(=O)[C@H]1CC1(C)C)C2)[C@@H](C)OCc1ccccc1 [I-40A] showed an IC50 greater than 10 µM. With C[C@@H]1C[C@H](C)CN(C(=O)[C@@H](NC(=O)C2CN(C(=O)c3cnn(Cc4ccccc4)c3)CC23CN(C(=O)[C@H]2CC2(C)C)C3)[C@@H](C)OCc2ccccc2)C1 (stereo partly shown) [I-22] the IC50 was 0.5 to 5 µM. In the case of CNC(=O)[C@@H](NC(=O)[C@H]1CN(C(=O)c2ccccn2)CC12CN(C(=O)[C@H]1CC1(C)C)C2)[C@@H](C)OCc1ccccc1 [I-45B], the IC50 is reported as greater than 10 µM. With CNC(=O)[C@@H](NC(=O)[C@@H]1CN(Cc2ccncc2)CC12CN(C(=O)[C@H]1CC1(C)C)C2)[C@@H](C)OCc1ccccc1 [I-55A] the IC50 was greater than 10 µM. Compound C[C@@H](OCc1ccccc1)[C@H](NC(=O)C1CN(C(=O)c2cnn(Cc3ccccc3)c2)CC12CN(C(=O)[C@H]1CC1(C)C)C2)C(=O)NCC#CCO (stereo partly shown) [I-20] has an IC50 greater than 10 µM. For C[C@@H](OCC1CCCCC1)[C@H](NC(=O)C1CN(C(=O)C2CCC(=O)N(C)C2)CC12CN(C(=O)[C@H]1CC1(C)C)C2)C(=O)N1CCCCC1 (stereo partly shown) [I-242], the IC50 was greater than 10 µM. CC1(C)C[C@@H]1C(=O)N1CC2(CN(C(=O)c3cnn(Cc4ccccc4)c3)C[C@H]2C(=O)NCc2nc3ccccc3o2)C1 [I-230] was tested, and the IC50 was greater than 10 µM. With CC1(C)C[C@@H]1C(=O)N1CC2(CN(C(=O)c3cnn(Cc4ccccc4)c3)C[C@H]2C(=O)N[C@@H]2CC[C@@H]2O)C1 [I-201B] the IC50 was greater than 10 µM. Work on CNC(=O)[C@@H](NC(=O)[C@H]1CN(C(=O)c2sc(Cl)nc2C)CC12CN(C(=O)[C@H]1CC1(C)C)C2)[C@@H](C)OCC1CCCCC1 [I-208B] yielded an IC50 greater than 10 µM. CNC(=O)[C@@H](NC(=O)[C@@H]1CN(C(=O)c2cnn(CC3CCN(C(C)=O)CC3)c2)CC12CN(C(=O)[C@H]1CC1(C)C)C2)[C@@H](C)OCc1ccccc1 [I-17A] showed an IC50 greater than 10 µM. CNC(=O)[C@@H](NC(=O)[C@H]1CN(C(=O)c2cnc(CC3CC3)s2)CC12CN(C(=O)[C@H]1CC1(C)C)C2)[C@@H](C)OCC1CCCCC1 [I-177B] showed an IC50 greater than 10 µM. Compound CNC(=O)[C@@H](NC(=O)[C@H]1CN(C(=O)c2cnn(Cc3ccccc3)c2)CC12CN(C(=O)CC1(CO)CC1)C2)[C@@H](C)OCc1ccccc1 [I-92B] has an IC50 greater than 10 µM. CNC(=O)[C@@H](NC(=O)[C@H]1CN(C(=O)c2cnn(Cc3ccccc3)c2)CC12CN(C(=O)[C@H]1CC1(C)C)C2)[C@H](C)OCC1CCCCC1 [I-165] was tested, and the IC50 was greater than 10 µM. CNC(=O)[C@@H](NC(=O)[C@H]1CN(C(=O)c2cnn(Cc3ccccc3)c2)CC12CN(C(=O)C1CC1(C)C)C2)[C@@H](C)O (stereo partly shown) [I-88B] was tested, and the IC50 was greater than 10 µM. CNC(=O)[C@@H](NC(=O)[C@@H]1CN(C(=O)c2scnc2C2CCCC2)CC12CN(C(=O)[C@H]1CC1(C)C)C2)[C@@H](C)OCC1CCCCC1 [I-224B] showed an IC50 greater than 10 µM. In the case of CNC(=O)[C@@H](NC(=O)[C@H]1CN(C(=O)c2cnn(Cc3ccccc3)c2)CC12CN(C(=O)C1(CC3CC3)CC1)C2)[C@@H](C)OCc1ccccc1 [I-116B], the IC50 is reported as greater than 10 µM. For C[C@@H](OCC1CCCCC1)[C@H](NC(=O)[C@@H]1CN(C(=O)c2cnn(Cc3ccccc3)c2)CC12CN(C(=O)[C@H]1CC1(C)C)C2)C(=O)N1CC2(CNC2)C1 [I-240], the IC50 was greater than 10 µM. CC1(C)C[C@@H]1C(=O)N1CC2(CN(C(=O)c3cnn(Cc4ccccc4)c3)C[C@H]2C(=O)N[C@H]2CCc3cc(Cl)ccc32)C1 [I-133A] gave an IC50 greater than 10 µM. In the case of CNC(=O)[C@@H](NC(=O)[C@@H]1CN(CC2CCOCC2)CC12CN(C(=O)[C@H]1CC1(C)C)C2)[C@@H](C)OCc1ccccc1 [I-68A], the IC50 is reported as greater than 10 µM. CNC(=O)[C@@H](NC(=O)[C@H]1CN(C(=O)c2cnn(C)c2)CC12CN(C(=O)[C@H]1CC1(C)C)C2)[C@@H](C)OCc1ccccc1 [I-33B] gave an IC50 greater than 10 µM. CNC(=O)[C@@H](NC(=O)[C@H]1CN(Cc2n[nH]c3ccccc23)CC12CN(C(=O)[C@H]1CC1(C)C)C2)[C@@H](C)OCc1ccccc1 [I-143] gave an IC50 greater than 10 µM. CNC(=O)[C@H](CCCc1ccccc1)NC(=O)[C@H]1CN(C(=O)c2cnn(Cc3ccccc3)c2)CC12CN(C(=O)[C@H]1CC1(C)C)C2 [I-101B] was tested, and the IC50 was greater than 10 µM. In the case of CNC(=O)[C@@H](NC(=O)[C@@H]1CN(C(=O)c2cnn(Cc3ccccc3)c2)CC12CN(C(=O)CC1(CO)CC1)C2)[C@@H](C)OCc1ccccc1 [I-92A], the IC50 is reported as greater than 10 µM. With CC1(C)C[C@@H]1C(=O)N1CC2(CN(C(=O)c3cnn(Cc4ccccc4)c3)C[C@H]2C(=O)N2CCO[C@@H](Cc3ccccc3)C2)C1 [I-210] the IC50 was greater than 10 µM. In the case of CO[C@@H]1CC[C@H](NC(=O)[C@@H]2CN(C(=O)c3cnn(Cc4ccccc4)c3)CC23CN(C(=O)[C@H]2CC2(C)C)C3)C1 [I-248], the IC50 is reported as greater than 10 µM. For CNC(=O)[C@@H](NC(=O)[C@H]1CN(Cc2cn[nH]c2)CC12CN(C(=O)[C@H]1CC1(C)C)C2)[C@@H](C)OCc1ccccc1 [I-50B], the IC50 was greater than 10 µM. With COC(=O)[C@H](CO)NC(=O)[C@@H]1CN(C(=O)c2cnn(Cc3ccccc3)c2)CC12CN(C(=O)[C@H]1CC1(C)C)C2 [I-209A] the IC50 was greater than 10 µM. In the case of CNC(=O)[C@@H](NC(=O)[C@@H]1CN(C(=O)c2cnc[nH]2)CC12CN(C(=O)[C@H]1CC1(C)C)C2)[C@@H](C)OCc1ccccc1 [I-44A], the IC50 is reported as greater than 10 µM. CNC(=O)[C@@H](NC(=O)C1CN(Cc2n[nH]c3ccccc23)CC12CN(C(=O)[C@H]1CC1(C)C)C2)[C@@H](C)OCc1ccccc1 (stereo partly shown) [I-159] was tested, and the IC50 was greater than 10 µM. Compound CNC(=O)[C@@H](NC(=O)[C@@H]1CN(C(=O)c2cnn(CC3CCOCC3)c2)CC12CN(C(=O)[C@H]1CC1(C)C)C2)[C@@H](C)OCc1ccccc1 [I-95A] has an IC50 greater than 10 µM. Work on CNC(=O)[C@@H](NC(=O)[C@@H]1CN(C(=O)c2cnn(Cc3ccccc3)c2)CC12CN(C(=O)C1(CCF)CC1)C2)[C@@H](C)OCc1ccccc1 [I-117A] yielded an IC50 greater than 10 µM. Compound CNC(=O)[C@@H](NC(=O)[C@H]1CN(C(=O)C2CCNC2)CC12CN(C(=O)[C@H]1CC1(C)C)C2)[C@@H](C)OCc1ccccc1 (stereo partly shown) [I-70B] has an IC50 greater than 10 µM. In the case of CNC(=O)[C@@H](NC(=O)[C@@H]1CN(C(=O)c2cnn(Cc3ccccc3)c2)CC12CN(C(=O)c1ccccc1)C2)[C@@H](C)OCc1ccccc1 [I-26A], the IC50 is reported as greater than 10 µM. Compound CNC(=O)[C@@H](NC(=O)[C@H]1CN(C(=O)c2ccncc2)CC12CN(C(=O)[C@H]1CC1(C)C)C2)[C@@H](C)OCc1ccccc1 [I-46B] has an IC50 greater than 10 µM. In the case of CC1(C)C[C@@H]1C(=O)N1CC2(CN(C(=O)c3cnn(Cc4ccccc4)c3)C[C@H]2C(=O)NC2CCCN(C(=O)c3ccccc3)C2)C1 (stereo partly shown) [I-59A], the IC50 is reported as greater than 10 µM. Work on CNC(=O)[C@@H](NC(=O)[C@H]1CN(C(=O)c2cnn(Cc3ccccc3)c2)CC12CN(C(=O)C1(C3CC3)CC1)C2)[C@@H](C)OCc1ccccc1 [I-114B] yielded an IC50 greater than 10 µM. With C[C@H](NC(=O)[C@@H]1CN(C(=O)c2cnn(Cc3ccccc3)c2)CC12CN(C(=O)[C@H]1CC1(C)C)C2)c1cccc(F)c1 [I-127A] the IC50 was greater than 10 µM. C[C@@H](OCc1ccccc1)[C@H](NC(=O)[C@H]1CN(C(=O)c2cnn(Cc3ccccc3)c2)CC12CN(C(=O)[C@H]1CC1(C)C)C2)C(N)=O [I-176B] gave an IC50 greater than 10 µM.
